Laboratory results published in patent US20140220477A1, “Polymers, substrates, methods for making such, and devices comprising the same” (Avertica, Inc., priority 2013, published 2014).
Counter-ions that a name gives are not always drawn.

Target: T1, mushroom tyrosinase (polyphenol oxidase) Sigma T3824 (Agaricus bisporus, UniProt C7FF04)
T1 construct: purchased Sigma T3824
Test: Testing of polymer production in enzymatic tyrosinase (polyphenol oxidase) reaction
Format: biochemical
Parameters: key: +++: Reacted within about 1 hour; ++: reacted within about 3 hours; +: reacted within about 24 hours; +/−: inconclusive results; −: no reaction
Method: All reactions were carried out in approximately 50 mM potassium phosphate buffer, pH 6.5 with approximately 5 mM substrate and mushroom tyrosinase (polyphenol oxidase) Sigma T3824 in an amount of 100 to 10,000 units. Reaction volumes varied from 200 μl to 2 ml. In cases where substrates were not completely solubilized, then a saturated solution was used as the limit of solubility. In some cases, a solution of DMSO was used to increase solubility of the substrates. The enzyme was tested and shown to retain activity up to 50% DMSO. The reactions were observed over a 24 hour period for the production of polymers, and the presence and color of polymer and solution was recorded.
The production of polymers in each reaction was visible as a precipitate in the well of a 96 well plate or in the reaction mixture on a glass slide.

[1] = as above, marked substrate(s) dissolved in 20% DMSO
[2] = approx. 50 mM potassium phosphate buffer pH 6.5, approx. 5 mM substrate, 100 to 10,000 units enzyme, observed over 24 hours

T1 sequence (C7FF04 1-392 limits assumed): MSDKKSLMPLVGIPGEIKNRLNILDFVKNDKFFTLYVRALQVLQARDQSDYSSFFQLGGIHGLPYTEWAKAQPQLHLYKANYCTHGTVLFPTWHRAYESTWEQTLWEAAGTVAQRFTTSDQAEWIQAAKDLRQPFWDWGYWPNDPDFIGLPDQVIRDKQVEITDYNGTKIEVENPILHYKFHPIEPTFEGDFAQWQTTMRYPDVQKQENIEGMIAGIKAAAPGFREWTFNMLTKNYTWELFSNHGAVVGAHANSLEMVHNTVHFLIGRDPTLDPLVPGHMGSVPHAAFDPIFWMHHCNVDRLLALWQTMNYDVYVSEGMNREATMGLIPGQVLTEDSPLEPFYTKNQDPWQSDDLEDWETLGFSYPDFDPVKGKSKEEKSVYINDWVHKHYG

Compound	Result (polymer production in tyrosinase reaction) [1]	Result (polymer production in tyrosinase reaction) [2]
Oc1ccc2c(c1)[nH]c1ccccc12 [2 Hydroxy carbazole]	−	
Cl.NCCc1ccc(O)cc1 [Tyramine HCl]		+++ (Reacted within about 1 hour)
Oc1ccc(-c2cc(-c3ccc(O)cc3)cc(-c3ccc(O)cc3)c2)cc1 [1,3,5 Tris(4hydroxyphenyl)benzene]	+ (reacted within about 24 hours)	
CC1=NCCc2c1[nH]c1cc(O)ccc21 [Harmalol HCl dehydrate]	−	
N[C@@H](Cc1ccc(O)cc1)C(=O)O [Tyrosine]		++ (reacted within about 3 hours)
Oc1ccc2cc(O)ccc2c1 [2,6 dihydroxnaphthalene]		+ (reacted within about 24 hours)
Cl.NCCc1ccccc1 [Beta phenylethylamine HCL]		+/−
Oc1ccc2[nH]ccc2c1 [5-hydroxyindole]		+++ (Reacted within about 1 hour)
CN[C@@H](Cc1ccc(O)cc1)C(=O)O [N-methyl tyrosine]		++ (reacted within about 3 hours)
Oc1ccc2cc[nH]c2c1 [6 Hydroxyindole]		++ (reacted within about 3 hours)
c1ccc2[nH]ccc2c1 [Indole]		−
NCCc1ccc(O)cc1 [Tyramine]		+++ (Reacted within about 1 hour)
